Assay: Inhibition of human CCR6 expressed in CHO cells assessed as decrease in human CCL20-dependent cell migration incubated for 4 hrs by Diff-Quik staining based assay

| SMILES | IC50 [nM] |
| --- | --- |
| Cc1ccc(S(=O)(=O)N2CCC(Nc3ccc(C#N)cn3)CC2)cc1 | 1400 |
| N#Cc1ccc(NC2CCN(S(=O)(=O)c3ccc(-c4ccccc4)cc3)CC2)nc1 | 240 |
